Species on record: Rattus norvegicus
Experiment: DrugMatrix - Regimen: Daily Repeat
Type: toxicity, organism-based, Sprague-Dawley
Set-up: regimen Daily Repeat, gender Male, age 6-8 weeks
Conditions: in vivo, po, route oral GAVAGE, […]; for ABSOLUTE BASOPHIL / ABSOLUTE EOSINOPHIL / ABSOLUTE LYMPHOCYTE / ABSOLUTE MONOCYTE / ABSOLUTE SEGMENTED NEUTROPHIL / BASOPHIL / EOSINOPHIL / ERYTHROCYTE COUNT / HEMATOCRIT / HEMOGLOBIN / LEUKOCYTE COUNT / LYMPHOCYTE / MEAN CORPUSCULAR HEMOGLOBIN / MEAN CORPUSCULAR HEMOGLOBIN CONCENTRATION / MEAN CORPUSCULAR VOLUME / MONOCYTE / NEUTROPHIL / NUCLEATED RED BLOOD CELLS / PLATELET COUNT: tissue Blood; for ALANINE AMINOTRANSFERASE / ALBUMIN / ALKALINE PHOSPHATASE / ASPARTATE AMINOTRANSFERASE / BLOOD UREA NITROGEN / CARBON DIOXIDE / CHLORIDE / CHOLESTEROL / CREATINE PHOSPHOKINASE / CREATININE / GLUCOSE / LACTATE DEHYDROGENASE / LIPASE / PHOSPHORUS / POTASSIUM / SODIUM / TOTAL BILIRUBIN / TOTAL PROTEIN / URIC ACID: tissue Plasma
[1] = 0 mg/kg, 72 h, dose level Control, time 3 day
[2] = 0 mg/kg, 120 h, dose level Control, time 5 day
[3] = 3 mg/kg, 72 h, dose level Low, time 3 day

## CC#C[C@]1(O)CC[C@H]2[C@@H]3CCC4=CC(=O)CCC4=C3[C@@H](c3ccc(N(C)C)cc3)C[C@@]21C [MIFEPRISTONE]
[1]
  ABSOLUTE BASOPHIL: 0 CELLS/uL
  ABSOLUTE EOSINOPHIL: 14 CELLS/uL
  ABSOLUTE LYMPHOCYTE: 11144.67 CELLS/uL
  ABSOLUTE MONOCYTE: 22.5 CELLS/uL
  ABSOLUTE SEGMENTED NEUTROPHIL: 535.5 CELLS/uL
  BASOPHIL: 0%
  EOSINOPHIL: 0.17%
  ERYTHROCYTE COUNT: 5.08 x10E6/uL
  HEMATOCRIT: 32.32%
  HEMOGLOBIN: 12.87 G/DL
  LEUKOCYTE COUNT: 11.72 x10E3/uL
  LYMPHOCYTE: 94.67%
  MEAN CORPUSCULAR HEMOGLOBIN: 25.37 pg
  MEAN CORPUSCULAR HEMOGLOBIN CONCENTRATION: 39.85 G/DL
  MEAN CORPUSCULAR VOLUME: 63.58 fL
  MONOCYTE: 0.17%
  NEUTROPHIL: 5%
  NUCLEATED RED BLOOD CELLS: 0 /100WBC
  PLATELET COUNT: 1084 x10E3/uL
  ALANINE AMINOTRANSFERASE: 67.5 u/L
  ALBUMIN: 4.02 G/DL
  ALKALINE PHOSPHATASE: 374.17 u/L
  ASPARTATE AMINOTRANSFERASE: 83.5 u/L
  BLOOD UREA NITROGEN: 14.5 mg/dL
  CARBON DIOXIDE: 30 mmol/L
  CHLORIDE: 100.5 MEQ/L
  CHOLESTEROL: 71.33 mg/dL
  CREATINE PHOSPHOKINASE: 268.33 u/L
  CREATININE: 0.16 mg/dL
  GLUCOSE: 170.5 mg/dL
  LACTATE DEHYDROGENASE: 81.17 u/L
  LIPASE: 16.67 u/L
  PHOSPHORUS: 10.07 mg/dL
  POTASSIUM: 5.03 MEQ/L
  SODIUM: 142.92 MEQ/L
  TOTAL BILIRUBIN: 0.17 mg/dL
  TOTAL PROTEIN: 5.63 G/DL
  URIC ACID: 0.5 mg/dL
[2]
  ABSOLUTE BASOPHIL: 0 CELLS/uL
  ABSOLUTE EOSINOPHIL: 37.5 CELLS/uL
  ABSOLUTE LYMPHOCYTE: 8049.5 CELLS/uL
  ABSOLUTE MONOCYTE: 82.83 CELLS/uL
  ABSOLUTE SEGMENTED NEUTROPHIL: 646.83 CELLS/uL
  BASOPHIL: 0%
  EOSINOPHIL: 0.5%
  ERYTHROCYTE COUNT: 5.36 x10E6/uL
  HEMATOCRIT: 33.9%
  HEMOGLOBIN: 13.02 G/DL
  LEUKOCYTE COUNT: 8.82 x10E3/uL
  LYMPHOCYTE: 90.17%
  MEAN CORPUSCULAR HEMOGLOBIN: 24.32 pg
  MEAN CORPUSCULAR HEMOGLOBIN CONCENTRATION: 38.42 G/DL
  MEAN CORPUSCULAR VOLUME: 63.32 fL
  MONOCYTE: 1.17%
  NEUTROPHIL: 8.17%
  NUCLEATED RED BLOOD CELLS: 0.17 /100WBC
  PLATELET COUNT: 1231.5 x10E3/uL
  ALANINE AMINOTRANSFERASE: 62 u/L
  ALBUMIN: 3.97 G/DL
  ALKALINE PHOSPHATASE: 303.67 u/L
  ASPARTATE AMINOTRANSFERASE: 84.5 u/L
  BLOOD UREA NITROGEN: 14.83 mg/dL
  CARBON DIOXIDE: 31.83 mmol/L
  CHLORIDE: 97 MEQ/L
  CHOLESTEROL: 68.83 mg/dL
  CREATINE PHOSPHOKINASE: 411.33 u/L
  CREATININE: 0.16 mg/dL
  GLUCOSE: 170.17 mg/dL
  LACTATE DEHYDROGENASE: 88.5 u/L
  LIPASE: 9.5 u/L
  PHOSPHORUS: 9.98 mg/dL
  POTASSIUM: 5.72 MEQ/L
  SODIUM: 141.62 MEQ/L
  TOTAL BILIRUBIN: 0.1 mg/dL
  TOTAL PROTEIN: 5.67 G/DL
  URIC ACID: 0.52 mg/dL
[3]
  ABSOLUTE BASOPHIL: 0 CELLS/uL
  ABSOLUTE EOSINOPHIL: 0 CELLS/uL
  ABSOLUTE LYMPHOCYTE: 9937.33 CELLS/uL
  ABSOLUTE MONOCYTE: 98.67 CELLS/uL
  ABSOLUTE SEGMENTED NEUTROPHIL: 897.33 CELLS/uL
  BASOPHIL: 0%
  EOSINOPHIL: 0%
  ERYTHROCYTE COUNT: 4.8 x10E6/uL
  HEMATOCRIT: 31.67%
  HEMOGLOBIN: 12.47 G/DL
  LEUKOCYTE COUNT: 10.93 x10E3/uL
  LYMPHOCYTE: 91.33%
  MEAN CORPUSCULAR HEMOGLOBIN: 25.97 pg
  MEAN CORPUSCULAR HEMOGLOBIN CONCENTRATION: 39.4 G/DL
  MEAN CORPUSCULAR VOLUME: 66.03 fL
  MONOCYTE: 1%
  NEUTROPHIL: 7.67%
  NUCLEATED RED BLOOD CELLS: 0 /100WBC
  PLATELET COUNT: 1024.33 x10E3/uL
  ALANINE AMINOTRANSFERASE: 67 u/L
  ALBUMIN: 3.93 G/DL
  ALKALINE PHOSPHATASE: 384 u/L
  ASPARTATE AMINOTRANSFERASE: 83 u/L
  BLOOD UREA NITROGEN: 13 mg/dL
  CARBON DIOXIDE: 30.33 mmol/L
  CHLORIDE: 100.67 MEQ/L
  CHOLESTEROL: 68 mg/dL
  CREATINE PHOSPHOKINASE: 246.67 u/L
  CREATININE: 0.12 mg/dL
  GLUCOSE: 171 mg/dL
  LACTATE DEHYDROGENASE: 78.33 u/L
  LIPASE: 10 u/L
  PHOSPHORUS: 10.13 mg/dL
  POTASSIUM: 5.79 MEQ/L
  SODIUM: 143.5 MEQ/L
  TOTAL BILIRUBIN: 0.17 mg/dL
  TOTAL PROTEIN: 5.6 G/DL
  URIC ACID: 0.57 mg/dL
